Data: US20210047366A1, “ANDRIAS DAVIDIANUS CARTILAGE PREPARATION” (TSINGHUA UNIVERSITY, priority 2017, published 2021)
No end group written: not given here.

Molecular target: XOD (xanthine oxidase) enzyme (Sigma, derived from milk) (Bos taurus, UniProt P80457)
Assay: XOD enzyme activity inhibition (XOD enzyme activity detection kit, uric acid absorption at 295 nm)
Details: for IC50: half-inhibitory concentration on XOD; for XOD enzyme activity inhibition: concentration three times the half-inhibitory concentration

Sequence of XOD (xanthine oxidase) enzyme (Sigma, derived from milk) (P80457 whole entry): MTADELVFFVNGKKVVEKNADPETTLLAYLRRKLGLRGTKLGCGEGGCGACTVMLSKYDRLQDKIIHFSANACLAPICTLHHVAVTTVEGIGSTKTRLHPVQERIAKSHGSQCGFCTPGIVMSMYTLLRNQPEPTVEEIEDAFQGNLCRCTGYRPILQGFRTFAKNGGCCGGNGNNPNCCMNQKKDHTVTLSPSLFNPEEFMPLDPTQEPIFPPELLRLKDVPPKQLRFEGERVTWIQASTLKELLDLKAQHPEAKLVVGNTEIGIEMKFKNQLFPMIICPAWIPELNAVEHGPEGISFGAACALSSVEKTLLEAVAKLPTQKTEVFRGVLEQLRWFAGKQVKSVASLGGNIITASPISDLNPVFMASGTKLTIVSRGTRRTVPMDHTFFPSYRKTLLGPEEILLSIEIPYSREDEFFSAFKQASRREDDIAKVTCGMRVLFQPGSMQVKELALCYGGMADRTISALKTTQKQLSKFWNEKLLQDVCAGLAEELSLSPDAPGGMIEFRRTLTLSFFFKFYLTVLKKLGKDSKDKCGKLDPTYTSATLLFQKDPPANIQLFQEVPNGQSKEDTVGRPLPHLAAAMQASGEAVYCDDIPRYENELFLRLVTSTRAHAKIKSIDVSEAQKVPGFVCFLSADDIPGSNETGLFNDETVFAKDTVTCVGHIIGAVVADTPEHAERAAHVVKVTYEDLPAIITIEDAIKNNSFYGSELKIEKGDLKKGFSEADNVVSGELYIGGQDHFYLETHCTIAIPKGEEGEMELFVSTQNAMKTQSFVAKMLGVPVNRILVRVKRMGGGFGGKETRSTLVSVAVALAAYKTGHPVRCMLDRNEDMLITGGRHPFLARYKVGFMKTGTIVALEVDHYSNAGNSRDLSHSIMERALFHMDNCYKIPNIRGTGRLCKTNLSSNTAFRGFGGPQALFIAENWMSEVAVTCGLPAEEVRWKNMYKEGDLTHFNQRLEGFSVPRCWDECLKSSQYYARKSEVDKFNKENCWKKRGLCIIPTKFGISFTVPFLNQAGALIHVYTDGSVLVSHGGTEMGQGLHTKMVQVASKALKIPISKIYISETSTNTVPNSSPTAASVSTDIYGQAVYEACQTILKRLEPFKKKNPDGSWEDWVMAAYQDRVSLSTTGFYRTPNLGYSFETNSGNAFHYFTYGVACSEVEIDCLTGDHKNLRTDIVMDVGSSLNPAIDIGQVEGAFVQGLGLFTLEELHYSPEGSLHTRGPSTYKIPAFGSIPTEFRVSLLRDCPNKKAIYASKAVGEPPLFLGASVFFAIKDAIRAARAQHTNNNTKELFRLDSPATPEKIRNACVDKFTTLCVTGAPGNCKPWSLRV

Compound	IC50 (IC50(M), Table 5, molar) [M]	XOD enzyme activity inhibition	IC50 [M]	activity at 20 µg/mL (read-out: XOD activity (%)) [%]	activity at 40 µg/mL (read-out: XOD activity (%)) [%]	activity at 80 µg/mL (read-out: XOD activity (%)) [%]	other results
HDLPLPLPE [Peptide S3]	5.82e-05	completely inhibited	5.82e-05	87.2	67.3	46.9	–
VPSGPLGPEGPR [Peptide S1]	0.00275	–	–	–	–	–	IC50 (same reaction system): 0.00275 M; activity at 2500 µg/mL (read-out: XOD activity (%)): 57.6%; activity at 5000 µg/mL (read-out: XOD activity (%)): 36.7%; activity at 10000 µg/mL (read-out: XOD activity (%)): 26.9%
Oc1ncnc2[nH]ncc12 [Allopurinol, reference compound]	–	–	–	–	–	–	XOD enzyme activity retained (concentration 30 μg/mL): about 10%; activity at 0.2 µg/mL (read-out: XOD activity (%)): 59.4%; activity at 0.4 µg/mL (read-out: XOD activity (%)): 34.7%; activity at 0.8 µg/mL (read-out: XOD activity (%)): 31.2%
DNLPPLPK [Peptide S4]	6.72e-05	completely inhibited	6.72e-05	87.9	67.7	43.2	–
TGPLGPSPGP [Peptide S2]	0.000125	completely inhibited	0.000125	–	–	–	activity at 50 µg/mL (read-out: XOD activity (%)): 80%; activity at 100 µg/mL (read-out: XOD activity (%)): 55.8%; activity at 200 µg/mL (read-out: XOD activity (%)): 17.9%
